Entries after “also recorded” stand apart in the source; their conditions may differ. Like-named read-outs stand apart in the source and are kept apart here. *1 amine or outer side, *2 acyl side, *3 side chain or, on linkers, in order; H or OH if unused. Where a SMILES comes first, the peptide text is derived from it. The star is where a group is joined. AMC = Cc1cc(=O)oc2cc(N*)ccc12; Suc = O=C(CCC(=O)[*:2])[*:1]

What is called IC50 is the midpoint of a concentration-inhibition curve. The term Ki denotes the equilibrium dissociation constant of an inhibitor or competing ligand from its target. The term kinact/KI denotes the second-order rate constant of inactivation. The term Km denotes the concentration of substrate that gives half-maximal velocity.

The target of series [1] is T1, Mtb proteasome (Mycobacterium tuberculosis, UniProt P9WHT9).
T1 construct: made in house
T1 sequence (P9WHT9 whole entry, looked up): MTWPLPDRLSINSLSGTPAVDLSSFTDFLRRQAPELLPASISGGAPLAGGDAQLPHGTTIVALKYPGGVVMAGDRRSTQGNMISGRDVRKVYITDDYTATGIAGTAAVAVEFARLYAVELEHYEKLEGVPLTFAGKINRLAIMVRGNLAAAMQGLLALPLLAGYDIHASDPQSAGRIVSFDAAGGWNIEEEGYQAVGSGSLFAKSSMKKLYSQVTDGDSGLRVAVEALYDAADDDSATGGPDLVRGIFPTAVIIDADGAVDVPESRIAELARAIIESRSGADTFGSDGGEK
The experiment in a line: biochemical. It counts as biochemical. Conditions: for IC50: 50 µM Suc-LLVY-AMC, 30 min preincubation, 37 °C, triplicate, read-out: IC50 against the Mtb proteasome; for Hill Coefficient: from IC50 curve, Mtb proteasome.

The target in series [2] is T1, Mtb proteasome. As to the kind of experiment: Determination of Ki and type of inhibition (varied substrate concentration, GraphPad Prism model fit). It counts as biochemical. Conditions: for Ki: best scoring inhibition model; for Type of Inhibition: best ranking model (mixed, competitive, noncompetitive, uncompetitive). How it is done:
The concentrations of 11, 13 and 15 were 0, 0.56, 0.81, 1.15, 1.65, 2.35, 4.80, 9.80 and 20 µM. Further, the concentrations for compound 8 were 0, 1.65, 2.35, 4.80, 9.80 µM and for bortezomib 0, 0.28, 0.40, 0.58, 0.82, 1.18, 2.40, 4.90 and 10 µM. All experiments were performed in triplicate. The resulting data were analyzed using the GraphPad Prism 6 software and were fitted to the software provided models for competitive, noncompetitive, uncompetitive and mixed type enzyme inhibition. The mode of inhibition and Ki values were chosen from the best ranking model, as determined by the software. Representative graphs (Michaelis-Menten, Dixon and Lineweaver-Burk plots) depicting the data fit for the best ranking model of inhibition for all compounds are shown in the Supplementary data (Figures S2–S19).

For series [3], the target named is T1, Mtb proteasome. Format: biochemical. Conditions: for Reversibility of inhibition: Mtb proteasome, 100-fold dilution after preincubation; for Reversibility of inhibition at lower concentrations: concentrations ≤ IC50.
In the next series the test system is ß5i of IP. Conditions: cited from earlier work; for IC50: read-out: IC50 against ß5i of IP.
For series [4], the target named is T1, Mtb proteasome. As to the kind of experiment: Determination of kinact/Ki values for PR-957. Format: biochemical. Conditions: 50 µM Suc-LLVY-AMC, 37 °C. How it is done: The kinetic assays were conducted as previously described in Enzymatic assays. Briefly, 7.8 μL of the Mtb proteasome (final concentration of 7 nM) in 20 mM HEPES buffer, pH = 7.5 with 0.5 mM EDTA was added to 0.2 μL of the compound solution at 100x final concentration in DMSO. The concentrations of PR-957 used were 0, 1.15, 1.65, 2.35, 4.80, 9.80 and 20 µM. The enzymatic reaction was initiated by the addition of 2 μL Suc-LLVY-AMC (final concentration of 50 μM) and the reaction progress was determined on a BioTek Synergy HT microplate reader, by monitoring fluorescence at 460 nm (λex = 360 nm) for 90 min at 37 °C. Values of kobs were derived from the fit of the data to the equation P = (vi/kobs)x [1 − exp(−kobs·t)] in GraphPadPrism. The data obtained were afterwards plotted against inhibitor concentration, to obtain kinact/Ki by fitting to the equation […]. The representative plots are presented in Supplementary data (Figure S33–S36).

The target in series [5] is T1, Mtb proteasome. Also on record: method as in PMID 16468985. Particulars: substrate of Mtb proteasome; read-out: Km (literature value); cited from earlier work.
Series [6] has as its system Cc1cc(=O)oc2cc(NC(=O)[C@H](Cc3ccc(O)cc3)NC(=O)[C@@H](NC(=O)[C@H](CC(C)C)NC(=O)[C@H](CC(C)C)NC(=O)CCC(=O)O)C(C)C)ccc12. As to the kind of experiment: purified protein, by the assay type. Particulars: other: substrate of Mtb proteasome, 10 nM enzyme.
Description: Additionally, the Km of the substrate Suc-LLVY-AMC was calculated based on the initial velocity of the enzymatic reaction using 10 nM Mtb proteasome at various concentration of the substrate (12.5, 25, 50, 100, 250, 500 µM).

On to `CC(C)C[C@H](NC(=O)[C@H](Cc1ccccc1)NC(=O)c1cnccn1)B(O)O` [Bortezomib, reference compound], for which the IC50 on Mtb proteasome [1] is 0.11 ± 0.03 µM; in the series with ß5i of IP, 4 nM. In addition, on Mtb proteasome [1], the “Hill Coefficient” value is recorded as 0.76. Further, the “α (mixed inhibition model)” value on Mtb proteasome [2] was determined as 0.85. The molecule further gave a Ki at Mtb proteasome [2] (Ki) of 0.133 µM. The results for the “Type of Inhibition” value at Mtb proteasome [2] and on Mtb proteasome [2] (listed as bortezomib) were “Mixed inhibition” and “mixed type of inhibition”, respectively. Besides, the proteasome activity retained entry on Mtb proteasome [3] (5 × IC50 concentration, 0-, 15-, 30- or 60-min preincubation at 25 °C) is reported as “approximately 55%”. Also, the results for the Reversibility of inhibition entry at Mtb proteasome [3] and at Mtb proteasome [3] (listed as bortezomib) were “(Slow) reversible inhibition” and ““slow/partially” reversible”, respectively. Also, the “loss of enzyme activity compared to the DMSO control” value on Mtb proteasome [3] (concentrations equal or higher than IC50, longer preincubation time) is given as no more than 45%.

`Cc1c(CCC(=O)NCC#N)c(=O)oc2cc3occ(C(C)(C)C)c3cc12` [Compound 8]: on Mtb proteasome [1], the IC50 was determined as 3.7 ± 1.5 µM and the “Hill Coefficient” value came to 1.05. On Mtb proteasome [2], the “α (mixed inhibition model)” value was 0.19 and the “Type of Inhibition” value is recorded as “mixed type of inhibition”. At Mtb proteasome [2] (Ki), this molecule showed a Ki of 5.6 µM. For the same molecule, the Reversibility of inhibition result at Mtb proteasome [3] was “reversible inhibitors; also recorded: Reversible inhibition”. Further, in the series with ß5i of IP (residual activity of β5i in the presence of 10 μM compound), the “RA at 10 µM against ß5i of IP” value is listed as 100%.

On to `Cc1c(CCC(=O)ON2C(=O)CCC2=O)c(=O)oc2cc3occ(-c4ccco4)c3cc12` [Compound 11], for which, on Mtb proteasome [1], the IC50 was found to be 8.8 ± 1 µM and the “Hill Coefficient” value stood at 0.90. At Mtb proteasome [2], the “α (mixed inhibition model)” value worked out at 6.67 and the “Type of Inhibition” value was “mixed type of inhibition”. The molecule further gave an inhibition constant (Ki) at Mtb proteasome [2] (Ki) of 4.2 µM. For the same molecule, at Mtb proteasome [3], the Reversibility of inhibition result was “partially reversible inhibition; also recorded: (Partially) reversible inhibition” and the “Reversibility of inhibition at lower concentrations” value is on record as “reversible inhibition”. Also, the IC50 in the series with ß5i of IP was 940 nM.

Turning to `Cc1cc(-c2coc3cc4oc(=O)c(CC(=O)ON5C(=O)CCC5=O)c(C)c4cc23)c(C)s1` [Compound 13], at Mtb proteasome [1], the IC50 was found to be 3.2 ± 0.3 µM and the “Hill Coefficient” value was found to be 0.90. The affinity at Mtb proteasome [2] (Ki) corresponds to a Ki of 1.1 µM. The “Type of Inhibition” value at Mtb proteasome [2] was “mixed type of inhibition”. Also, at Mtb proteasome [3], the Reversibility of inhibition result is “partially reversible inhibition; also recorded: (Partially) reversible inhibition” and the “Reversibility of inhibition at lower concentrations” value was “reversible inhibition”. The IC50 in the series with ß5i of IP is 4400 nM.

As for `Cc1c(CCC=O)c(=O)oc2cc3c(cc12)C(c1ccccc1)CO3` (stereo not shown) [Compound 15], at Mtb proteasome [1], the concentration for half-maximal inhibition (IC50) was found to be 5.8 ± 2.1 µM and the “Hill Coefficient” value turned out to be 0.55. For the same molecule, at Mtb proteasome [2], the “α (mixed inhibition model)” value is on record as 0.22 and the “Type of Inhibition” value is “mixed type of inhibition”. Also, on Mtb proteasome [2] (read-out: Ki), the Ki was 14.9 µM. In addition, the Reversibility of inhibition entry on Mtb proteasome [3] was “reversible inhibitors; also recorded: Reversible inhibition”.

`COc1ccc(C[C@H](NC(=O)[C@H](C)NC(=O)CN2CCOCC2)C(=O)N[C@@H](Cc2ccccc2)C(=O)[C@@]2(C)CO2)cc1` [PR-957, reference compound]: the figures for the IC50 on Mtb proteasome [1] and in the series on ß5i of IP were 2.2 ± 1 µM and 15 nM, respectively. Moreover, the “Hill Coefficient” value on Mtb proteasome [1] is recorded as 0.91. Moreover, the “Type of Inhibition” value at Mtb proteasome [2] was “Noncompetitive inhibition”. For the same molecule, the inhibition constant Ki at Mtb proteasome [2] (read-out: Ki) came out at 5.2 µM. Also, on Mtb proteasome [3], the Reversibility of inhibition entry is recorded as “irreversibly inhibited; also recorded: Irreversible inhibition”. For the same molecule, the “recovery of proteasome activity” value at Mtb proteasome [3] (concentration equal or higher than IC50) was “no significant recovery of proteasome activity; also recorded: completely inhibited the enzyme”. For the same molecule, the second-order inactivation constant (kinact/KI) at Mtb proteasome [4] was 96 M⁻¹ s⁻¹.

For the molecule `Cc1cc(=O)oc2cc(NC(=O)[C@H](Cc3ccc(O)cc3)NC(=O)[C@@H](NC(=O)[C@H](CC(C)C)NC(=O)[C@H](CC(C)C)NC(=O)CCC(=O)O)C(C)C)ccc12` [Suc-LLVY-AMC] (Suc-LLVY-{AMC}), the Km on Mtb proteasome [5] is 56 ± 15 µM.

“Mtb proteasome (Mycobacterium tuberculosis H37Rv)”: the Michaelis-Menten constant (Km) entry in series [6] was “^aKi determined with GraphPad Prism by fitting the data to several inhibition models (mixed, competitive, noncompetitive, uncompetitive). The best scoring model was further examined by creating Dixon, Lineweaver-Burk and Michaelis-Menten plots. Km for Suc-LLVY-AMC is 60 ± 15 µM (see Supplementary data for details). ND, not determined. ^b The data were calculated as residual activities (RAs) of β5i in the presence of 10 μM of each compound (standard errors for RAs were < 15%). µM”.

Values taken from PMC7144120, “Psoralen Derivatives as Inhibitors of Mycobacterium tuberculosis Proteasome” (Molecules, 2020).
